Legend:
zebrafish = conditions: ip/icv injection of MC4R agonist; cited from earlier work
rainbow trout = conditions: cited from earlier work
goldfish = conditions: cited from earlier work
From the text: In the brain, all genes were detected to be highly or moderately expressed. This finding is consistent with previous reports in teleosts, such as zebrafish and medaka, in which all the genes are expressed in the brain as detected by qRT-PCR assays.

[1] = target: tilapia melanocortin receptor 4 (MC4R), N-terminally 3xFlag-tagged (Nile tilapia (Oreochromis niloticus))
tilapia MC4R + MRAP2b = conditions: HEK293 cells; cited from earlier work
From the text: The presence of all MC4R signaling components in tilapia led us to further examine their interaction in vitro. […] Our finding partly agrees with recent findings in spotted gar, tilapia, topmouth culter, and zebrafish, showing that MC4R could be activated by mam ...

MC4R = test system: MC4R; design: method as in PMID 24085819, PMID 31398355, PMID 31299224, PMID 32922362; conditions: mammalian peptides; cited from earlier work
[2] = target: tilapia melanocortin receptor 4 (MC4R), N-terminally 3xFlag-tagged (Nile tilapia (Oreochromis niloticus)); remark: listed apart in the source
[3] = ip/icv injection of MC4R agonist

EC50 of activating the cAMP/PKA signaling pathway (pGL3-CRE-luciferase reporter) in CHO cells expressing tilapia MC4R in the presence of MRAP2b [2] | EC50 of activating the cAMP/PKA signaling pathway (pGL3-CRE-luciferase reporter) in CHO cells expressing tilapia MC4R, without MRAP2b [2] [nM] | Molecule | activation of MC4R, relative potency (in words) (MC4R) | further results
– | – | MTII | – | effect on feeding, zebrafish (zebrafish): reduce the feeding; effect on feeding, rainbow trouts (rainbow trout; [3]): reduce the feeding; effect on feeding, goldfish (goldfish; [3]): reduce the feeding
– | – | HS024 | – | effect on food intake, rainbow trout (rainbow trout; injection of MC4R antagonist): stimulate food intake; effect on food intake, goldfish (goldfish; injection of MC4R antagonist): stimulate food intake
– | – | tilapia melanocortin-2 receptor accessory protein 2b (MRAP2b), N-terminally Myc-tagged (natural protein) | – | sensitivity and selectivity of MC4R for ACTH(1-40) with MRAP2b co-expressed, against MC4R alone (EC50 0.246 nM vs. 0.032 nM; pGL3-CRE-luciferase reporter, CHO cells) [1]: 8 fold
– | – | ACTH1-39 | with similar potencies | effect of MRAP2b on EC50 value in activating tilapia MC4R (tilapia MC4R + MRAP2b): cannot significantly alter the EC50 value
– | – | NDP-α-MSH | with similar potencies | –
– | – | ACTH1-24: mammalian ACTH1-24 (cited) | with similar potencies | –
0.572 nM | 0.421 | DGSYKMKHFRWSGPPAS [tilapia β-MSH (derived from the POMCa1 precursor)] | – | –
0.786 nM | 0.955 | Ac-SYSMEHFRWGKPV-NH2 [tilapia α-MSH (acetyl-α-MSH with an amidated C-terminus; derived from the POMCa1 precursor)] | – | –
32 pM | 0.246 | SYSMEHFRWGKPVGRKRRPVKVYTSNGVAEESAEVFPEEM [tilapia ACTH(1-40) (derived from the POMCa1 precursor)] | – | –
